Test system: PlexA4-PlexA1 complex
Test: co-immunoprecipitation of Plexin-A4 with PlexA1 in U373MG cells
Format: cell-based, human
Conditions: 10^−7 M peptide 1 h
Method: (C) Rac-1 activation assay in resting condition and after Sema3A-induced Rac-1 activation in U373 MG cells. (D) Western blot analysis of phosphorylated Akt, total Akt and tubulin in U373MG cells treated with the vehicle (LDS 72 μM), Sema3A (100 ng/ml) or Sema3A + MTP-PlexA1 (10^−7 M). The lower panel is showing the quantification of the p-Akt/Akt ratio in the different conditions. (E) MTP-PlexA1 decreases VEGFR-2 phosphorylation induced by VEGF (100 ng/ml) in HUVEC cells. […]
in 20 mM sodium acetate (pH 4.5) at a flow rate of 5 μl/ min 10–7 M of MTP-PlexA1 or Vehicle (LDS, 72 µM) during until desired surface densities, measured in response 1 h. Stimulation was done with 100ng/ml Semaphorin 3A units, were reached. […] First antibodies (Rabbit anti-phospho-the elution buffer containing detergent removed non- akt, Rabbit anti-akt, Cell Signaling #4060 and #9272 biotinylated peptides rendering the chip ready for analysis respectively) and mouse anti-tubulin α (Cell Signaling with monomeric biot-MTP-PlexA1. Blank surfaces were #2144) were incubated overnight at 4°C (+ anti-NRP1, used for background corrections. Injections of 30 µl anti-PlexA4 Abcam). […] Images of the immuno-blots cells per well in a 6-well plate and serum starved overnight. were acquired and analyzed thanks to the GENE GNOME Before protein extraction, the cells were treated either with apparatus (Syngene Bio Imaging, UK).

With “TLPAIVGIGGGGGLLLLVIVAVLIAYKRK [MTP-PlexA1, synthetic transmembrane peptide mimicking the TMD of PlexA1]” the “change of PlexA4 co-immunoprecipitated with PlexA1, Sema3A-induced” value (Sema3A 100 ng/ml 30 min) was −35.5% and the “reduction of PlexA4 co-immunoprecipitated with PlexA1, VEGF” value (VEGF 100 ng/ml 10 min) was 35.4%.
